Assay results as given in PubChem BioAssay AID1324 (NMMLSC, 2008).
The source made the active and inactive calls. How the calls were made is not given here.

target: glutathione S-transferase (GST-GSH binding); assay: GST–glutathione interaction disruption – biochemical, multiplex beads, flow cytometry, HPSMTB buffer, profiling panel (AID 1324); conditions: multiplex bead flow cytometry, MCF;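 further: glutathione beads loaded with GST-green fluorescent protein and no fluorescent Bim peptide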

| SMILES | EC50 |
| --- | --- |
| CC1=CC(=O)c2c(O)ccc(O)c2C1=O | inactive |
| COC(=O)c1sc2nc[nH]c(=O)c2c1C | inactive |
| O=[N+]([O-])c1ccc(N/N=C/c2ccc(O)c(O)c2O)c(S(=O)(=O)N2CCOCC2)c1 | inactive |
| CN(C)c1ncc(C2=C(Cl)C(=O)C(N3CCCC3)=C(Cl)C2=O)s1 | 8830 nM |
| CN1CCN(C2=C(Cl)C(=O)C(c3cnc(N4CCCCC4)s3)=C(Cl)C2=O)CC1 | 220 nM |
| CCCCNc1nc(=S)[nH]c2cc(OC)c(OC)cc12 | inactive |
| Cc1nc2ncccn2c1-c1csc(Nc2ccc(O)cc2)n1 | 690 nM |

same assay, conditions: multiplex bead flow cytometry, MCF, stronger effect = higher value, concentration not given here

| SMILES | percent span inhibition |
| --- | --- |
| Cc1cccc(OCC(=O)NCC(=O)N/N=C/c2cc(Br)ccc2OCc2ccccc2)c1 | inactive |
| C/C(=N\NC(=O)COc1ccc(C(C)(C)C)cc1)c1ccc2c(c1)OCCO2 | inactive |
| O=C(Cn1c(-c2ccccc2)noc1=O)N1CCC(Cc2ccccc2)CC1 | inactive |
| S=C(Nc1ccccc1)N1CCn2cccc2C1c1cccnc1 (stereo unspecified) | inactive |
| COc1cccc(/C=N/Nc2nn3cnnc3c3ccccc23)c1O | inactive |
| Cc1cc(-c2csc(N)n2)c(C)n1C | inactive |
| O=C(NC1=C(NC2CCS(=O)(=O)C2)C(=O)c2ccccc2C1=O)c1ccccc1 (stereo unspecified) | inactive |
| COc1ccccc1C1=Nc2cccc3cccc(c23)N1 | inactive |
| O=C1/C(=C\c2ccc(-c3ccccc3Cl)o2)SC(=S)N1CC1CCCO1 (stereo unspecified) | inactive |
| CCN1/C(=C/c2ccc3cc(C)cc(C)c3[n+]2CC)Sc2cc(C)ccc21 | inactive |
| O=C(Nc1nnc(COc2ccc(Cl)cc2)s1)c1ccco1 | inactive |
| COc1ccc(N2C(=O)C(Cl)=C(Oc3cccc(OC)c3)C2=O)cc1 | inactive |
| CCC(/C=C1\Sc2ccc(OC)cc2N1CCO)=C\c1sc2ccc(OC)cc2[n+]1CCO | inactive |
| Cc1[nH]n(C(N)=S)c(=O)c1N=Nc1ccc(S(=O)(=O)N2CCCCCC2)cc1 | inactive |
| O=C(Nc1ccccc1)Nc1ccc2ncoc2c1 | inactive |
| O=C(C[n+]1ccc(-c2nnc3n2CCC3)cc1)c1ccc(Cl)cc1 | inactive |
| C=CCN1C(=O)/C(=C/c2ccsc2)SC1=S | inactive |
| CCc1cccc(CC)c1NC(=S)N1CCn2cccc2C1c1cccnc1 (stereo unspecified) | inactive |
| NC(=O)CSc1nnc(Cn2cnc3ccccc32)o1 | inactive |
| C=CS(=O)(=O)c1sc(Cl)c(N2CCOCC2)c1[N+](=O)[O-] | inactive |
| COc1ccc(-n2c(NC(=O)c3ccco3)c(C#N)c3nc4ccccc4nc32)cc1 | inactive |
| Cc1cnnn1-c1ccc(C(=O)CCl)cc1 | inactive |
| CSc1nnc2c3cc(C)ccc3n(Cc3ccccc3)c2n1 | inactive |
| CN=C(NC1CCCCC1)c1ccc(Cl)cc1 | inactive |

| SMILES | percent span inhibition |
| --- | --- |
| NC(=O)c1c(NC(=O)C2CCCO2)sc2c1CCCCC2 (stereo unspecified) | inactive |
| CSc1n[nH]c2nc3c(c(=O)n12)C1(CCCC1)Cc1ccccc1-3 | inactive |
| Cc1ccc(/C=C/C(=O)c2ccccc(=O)c2O)c(C)c1 | inactive |
| COc1cc(NC(=S)NCCCO)c(OC)cc1Cl | inactive |
| Cc1ccc(NS(=O)(=O)c2cc(NC(=O)c3ccc4c(c3)NC(=O)CS4)ccc2C)c(C)c1 | inactive |
| Cc1ccc(/C=C/C2=Cc3c(sc(NC(=O)CSc4n[nH]c(N)n4)c3C#N)C(C)(C)C2)o1 | inactive |
| Cc1cc(NC(=O)CCSc2ccccc2)ccc1Br | inactive |
| CCOC(=O)C1=C(Cc2ccc(OC)cc2)C(=O)c2ccccc2C1=O | inactive |
| C(=C\c1ccccc1)/CSc1nnc(-c2ccccn2)n1Cc1ccco1 | inactive |
| Cc1ccc(C)n1-c1ccc(N2CCOCC2)cc1 | inactive |
| COc1cccc2c1C(=O)C=C(C)C2=O | inactive |
| CC(=O)N1CCN(C(=O)c2ccc(-n3c(C)ccc3C)cc2)CC1 | inactive |
| CCN(CC)c1ccc(NC(=O)c2ccccc2)cc1S(=O)(=O)Nc1ccccc1OC | inactive |
| Cc1ccccc1-c1nc(-c2ccc(NC(=O)c3ccc4c(c3)OCO4)cc2)no1 | inactive |
| O=C(Cc1ccc(-c2ccccc2)cc1)NC1CCCC1 | inactive |
| Cc1ccc(C)c(Oc2ncnc(N)c2[N+](=O)[O-])c1 | inactive |
| CNC(=S)N/N=C/C1=CCC2CC1C2(C)C (stereo unspecified) | inactive |
| Fc1ccc(C2=Nn3c(Cc4ccccc4F)nnc3SC2)cc1 | inactive |
| CCOC(=O)C1CCCN(c2ncnc3c2cnn3-c2cccc(C)c2)C1 (stereo unspecified) | inactive |
| CNC(=O)c1sc(-c2ccccn2)nc1C | inactive |
| CC(C)(C)C1CCC(=NNC(=O)c2cc3c(s2)CCCC3)CC1 (stereo unspecified) | inactive |
| CCc1ccc(NC(=O)Cc2ccc(OC)cc2)cc1 | inactive |
| CC1Cc2ccccc2N1C(=O)c1ccc(N2CCCC2)c([N+](=O)[O-])c1 (stereo unspecified) | inactive |
| COc1ccc(CC(=O)Nc2ccc(C(=O)Nc3nccs3)cc2)cc1OC | inactive |

| SMILES | percent span inhibition |
| --- | --- |
| CC(C)n1nnnc1SCC(=O)N1CCN(C(=O)c2ccco2)CC1 | inactive |
| COc1ccccc1-n1c(-c2cc(-c3ccc(F)cc3)n[nH]2)n[nH]c1=S | inactive |
| O=C(c1ccccc1)c1ccc2nc(-c3ccco3)c(-c3ccco3)nc2c1 | inactive |
| CCN(CC)c1ccc(NC(=O)COc2ccccc2C)cc1S(=O)(=O)Nc1ccccc1OC | inactive |
| c1ccc(-c2nc(N3CCCCC3)nc3ccccc23)cc1 | inactive |
| Cc1cc(NC(=O)CCCC(=O)N(CC(=O)NC2CCCCC2)c2ccccc2)no1 | inactive |
| C/C(=N\NC(=O)COc1ccc(C#N)cc1)c1ccccc1OC(F)F | inactive |
| Cn1c(CNc2nc(-c3ccccc3)cs2)nnc1SCC(=O)N1CCc2ccccc21 | inactive |
| CN(CC(=O)O/N=C(\N)c1ccc([N+](=O)[O-])cc1)S(=O)(=O)c1ccccc1 | inactive |
| CCn1c(SCC(=O)Nc2ccc(C)cc2)nnc1-c1ccc(O)cc1 | inactive |
| O=C(NCc1ccco1)C1CC2CCC1C2 (stereo unspecified) | inactive |
| COc1cccc(/C=C2/SC(=O)N(C)C2=O)c1OCc1ccc(C(=O)O)cc1 | inactive |
| Cc1cc(NC(=O)CCCC(=O)NCc2ccccc2)no1 | inactive |
| Cc1ccc2c(c1)c(C)c(C)n2CC(O)Cn1nc(C)c(Br)c1C (stereo unspecified) | inactive |
| Cc1nc(NC(=O)CC(C)C)sc1-c1csc(Nc2ccc(Cl)cc2)n1 | inactive |
| CC[n+]1c(/C=C/C=C/N(C(C)=O)c2ccccc2)sc2ccccc21 | inactive |
| Cc1ccc(CC(=O)OCCNC(=O)c2cccnc2)cc1 | inactive |
| COc1ccccc1Oc1ccc2c(c1)C(=O)N(c1cccc3ncccc13)C2=O | inactive |
| COc1cccc2c(SCC(=O)N/N=C/c3ccc(O)c(O)c3)cc(C)nc12 | inactive |
| Cc1cccc(-n2c(O)c(/C=N/N3CCOCC3)c(=O)[nH]c2=S)c1 | inactive |
| CCOC(=O)c1[nH]cnc1C(=O)NC(C)C | inactive |
| Cc1nc2ccccc2n1CSc1ccccc1 | inactive |
| CC(/C=C/C(=O)c1ccc(C)cc1)=C\c1ccccc1 | inactive |
| O=C(Cn1cncc1-c1ccc([N+](=O)[O-])cc1)Nc1ccccc1F | inactive |

| SMILES | percent span inhibition |
| --- | --- |
| Cc1nnc(Sc2cc(NCCCO)c([N+](=O)[O-])c3nonc23)s1 | inactive |
| CCN1C(=O)/C(=C/C=C2\C=CN(CC)c3ccccc32)SC1=S | inactive |
| O=C(C1=NN[C@@H]2C(=O)N(c3cccc(F)c3)C(=O)[C@H]12)c1ccc2ccccc2n1 | inactive |
| Cn1c(=O)c2cc(S(=O)(=O)Nc3cc(C(=O)O)cc(C(=O)O)c3)ccc2n(C)c1=O | inactive |
| CCN(C(=O)COC(=O)c1cc(-c2ccc(C)o2)nc2ccccc12)C1CCS(=O)(=O)C1 (stereo unspecified) | inactive |
| Cc1ccc(-c2nc3c(c(=O)[nH]c(=O)n3Cc3ccccc3)n2C)o1 | inactive |
| c1ccc2c(N3CCOCC3)nc(N3CCOCC3)nc2c1 | inactive |
| COc1ccc(C(=O)NC(=S)N2CCNC(=O)C2)cc1Br | inactive |
| Cc1ccc(C(=O)/C=C/c2ccc(-c3ccc(C)cc3)o2)cc1 | inactive |
| CNC(=O)c1c(N)sc2c1CCCCC2 | inactive |
| Cc1ccc(N=C2NC(=O)/C(=C/C=C/c3ccco3)S2)cc1 | inactive |
| CCC(=O)NC(c1ccc(C)cc1)c1cc([N+](=O)[O-])c2cccnc2c1O (stereo unspecified) | inactive |
| CCCCCCc1cc2cc(C(=O)Nc3ccccc3)c(=O)oc2cc1O | inactive |
| O=C(C1=NN[C@@H]2C(=O)N(c3ccccc3C(F)(F)F)C(=O)[C@H]12)c1ccc2ccccc2n1 | inactive |
| CCN1C(=O)/C(=C\C=C2/C=CC=CN2CC)SC1=S | inactive |
| CS(=O)(=O)NN1C(=O)c2ccccc2NC1c1cccs1 (stereo unspecified) | inactive |
| O=C(COC(=O)c1ccccn1)NC1CCCCC1 | inactive |
| CCOc1ccccc1CNc1ccc(O)cc1 | inactive |
| CCN1CCN(c2cc(C)c3cc(NC(=S)N4CCN(c5ccc(F)cc5)CC4)ccc3n2)CC1 | inactive |
| COc1cc2[nH]c(=S)nc(NCCCOC(C)C)c2cc1OC | inactive |
| CNCc1ccccc1Sc1cc(O)ccc1O | inactive |
| CNc1ccc(Br)cc(C(=O)/C=C/c2ccc(OC)cc2OC)c1=O | inactive |
